Source: article PMC10299089, “Heterologous expression of genes from a cyanobacterial endosymbiont highlights substrate exchanges with its diatom host” (PNAS Nexus, 2023)

B1: RintHH_3860 (InvB), neutral invertase (Richelia intracellularis HH01) (protein)
chain: MQPHKVILKDVEKDAWDTLEKTIIYYQGNPIGTVAALDSTANTLNYDQCFVRDFVVSALLFLIKGRTEIVRNFLKQTLKLQPKKKQLGTYKPGRGLMPASFKVTFNNGQEELEADFGENAIARVTPVDSSLWWIVLLRAYVVATKDYSLAYQDDFQQGIRLILDLCLATRFDMYPTLLVPDGACMIDRRLGIHGHPLEIQSLYYAALRAARELLICQGNEELVFAIDNRLPVLAAHIRKHYWIDLHRLNDIYRYRGEEYGKDAVNQFNIYVDSIPYSELDRWLPKGGGYLAGNVGPSQMDTRFFTLGNLMAVIIDLTTQEQSQAIMTLIEQRWDDLVGDMPMKITFPALENEEYKYVTGCDPKNIPWSYHNAGNWPVLMWMLAAACVKTNHRELMQRALTIAQERLKNDEWPEYYDGKQGRLIGRQSRKYQTWTIVGFLLAKEILAQPGSLSLISFDPFITKQVSQACELKFDYFDS
notes: synthetic gene in pET28b(+), expressed in E. coli; crude cell-free extract (purification unsuccessful)

Assays:
[1] = target: T1, RintHH_11820 (NatB), SBP of N-I transporter (Richelia intracellularis, UniProt M1WZ73); assay: intrinsic Trp fluorescence quenching; format: binding; conditions: excitation 280 nm, emission ~340 nm; ligand ~116 µM
T1 construct: mature protein, signal peptide removed, N-terminal His tag, E. coli, nickel column
T1 sequence (M1WZ73 24-438): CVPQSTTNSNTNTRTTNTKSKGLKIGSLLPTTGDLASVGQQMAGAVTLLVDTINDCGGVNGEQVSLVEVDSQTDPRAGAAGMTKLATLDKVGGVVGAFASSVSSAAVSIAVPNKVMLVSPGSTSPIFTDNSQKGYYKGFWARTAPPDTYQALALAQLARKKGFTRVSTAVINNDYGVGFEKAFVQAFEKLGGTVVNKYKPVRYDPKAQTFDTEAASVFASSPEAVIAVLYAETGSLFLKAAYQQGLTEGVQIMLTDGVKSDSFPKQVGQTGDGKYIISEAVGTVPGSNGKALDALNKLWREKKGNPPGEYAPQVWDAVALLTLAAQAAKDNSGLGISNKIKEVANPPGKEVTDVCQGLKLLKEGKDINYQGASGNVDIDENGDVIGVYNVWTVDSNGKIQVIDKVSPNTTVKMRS

[2] = target: T2, RintHH_12770 (NatF), SBP of N-II transporter (Richelia intracellularis, UniProt M1WZB0); assay: intrinsic Trp fluorescence quenching; format: binding; conditions: excitation 280 nm, emission ~340 nm; ligand ~7 µM
T2 construct: mature protein, signal peptide removed, N-terminal His tag, E. coli, nickel column
T2 sequence (M1WZB0 22-348 limits assumed): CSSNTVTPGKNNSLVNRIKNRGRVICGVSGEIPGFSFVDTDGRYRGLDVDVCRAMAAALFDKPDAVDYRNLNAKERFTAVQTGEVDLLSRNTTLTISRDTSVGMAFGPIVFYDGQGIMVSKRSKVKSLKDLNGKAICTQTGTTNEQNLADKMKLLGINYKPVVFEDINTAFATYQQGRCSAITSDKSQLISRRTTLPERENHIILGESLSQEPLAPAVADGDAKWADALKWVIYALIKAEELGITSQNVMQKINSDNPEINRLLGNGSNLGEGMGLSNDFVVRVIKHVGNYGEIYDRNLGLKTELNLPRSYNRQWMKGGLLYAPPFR

[3] = target: T3, RintHH_17430 (GlsR), periplasmic SBP (Richelia intracellularis, UniProt M1X141); assay: intrinsic Trp fluorescence quenching; format: binding; conditions: 0.02 mM protein, excitation 280 nm, emission ~340 nm
T3 construct: mature protein, signal peptidase II signal peptide removed, N-terminal Cys fused to Strep-tag II; pET28b(+), E. coli, StrepTrap
T3 sequence (M1X141 41-442): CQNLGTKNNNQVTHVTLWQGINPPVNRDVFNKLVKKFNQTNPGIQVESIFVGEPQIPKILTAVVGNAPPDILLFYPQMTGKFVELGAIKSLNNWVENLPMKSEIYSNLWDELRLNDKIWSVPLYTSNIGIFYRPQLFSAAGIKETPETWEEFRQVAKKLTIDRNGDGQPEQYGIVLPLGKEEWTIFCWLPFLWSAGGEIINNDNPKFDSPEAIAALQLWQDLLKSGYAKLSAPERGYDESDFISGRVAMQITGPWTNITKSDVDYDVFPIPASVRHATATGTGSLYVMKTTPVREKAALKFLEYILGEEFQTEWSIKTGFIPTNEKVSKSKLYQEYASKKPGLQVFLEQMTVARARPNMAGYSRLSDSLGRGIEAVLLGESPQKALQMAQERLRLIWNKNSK

[4] = substrate: OC[C@H]1O[C@@](CO)(O[C@H]2O[C@H](CO)[C@@H](O)[C@H](O)[C@H]2O)[C@@H](O)[C@@H]1O; assay: glucose production by HPLC (Dionex), E. coli cell-free extract; format: biochemical, Richelia intracellularis; conditions: pH 7, 30 °C, 120 mM potassium phosphate, crude extract

Molecule	% quenching [1]	other results
NCC(=O)O [Gly]	substantial quenching was produced by the neutral amino acids (L-Pro, L-Ala, L-Phe, Gly, and L-Leu)	–
C[C@H](N)C(=O)O [L-Ala]	substantial quenching was produced by the neutral amino acids (L-Pro, L-Ala, L-Phe, Gly, and L-Leu)	–
N[C@@H](CCC(=O)O)C(=O)O [L-Glu]	–	% quenching [2]: substantial quenching was only seen with L-Glu
CC(C)C[C@H](N)C(=O)O [L-Leu]	substantial quenching was produced by the neutral amino acids (L-Pro, L-Ala, L-Phe, Gly, and L-Leu)	–
O=C(O)[C@@H]1CCCN1 [L-Pro]	substantial quenching was produced by the neutral amino acids (L-Pro, L-Ala, L-Phe, Gly, and L-Leu)	–
OC[C@H]1O[C@@](CO)(O[C@H]2O[C@H](CO)[C@@H](O)[C@H](O)[C@H]2O)[C@@H](O)[C@@H]1O [sucrose]	–	% quenching at 1 μM [3]: ~ 22.5%
B1	–	Km [4]: 25.7 mM
